In ChEMBL document CHEMBL5321224, “Antimicrobial peptides: Structure, mechanism, and modification” (2023):
Values belong to the compound of their own block, whether it stands above or below them. Calls of active or inactive are those of the source. The calls are words filed in the database; no cut-off is given here. Non-standard residues stand in square brackets, D forms with d. Residues, ends and D or L forms follow the SMILES beside them. βAla = NCCC(=O)O

What was measured:
Assay type in all cases: functional
[1] = tested on: Pseudomonas aeruginosa; assay: Antimicrobial activity against Pseudomonas aeruginosa assessed as reduction of microbial growth incubated for 6 to 9 hr by macrodilution method; settings: time 6-9 hrs
[2] = tested on: Staphylococcus aureus; assay: Antimicrobial activity against Staphylococcus aureus assessed as reduction of microbial growth incubated for 6 to 9 hr by macrodilution method; settings: time 6-9 hrs
[3] = tested on: Escherichia coli; assay: Antimicrobial activity against Escherichia coli assessed as reduction of microbial growth incubated for 6 to 9 hr by macrodilution method; settings: time 6-9 hrs
[4] = tested on: Pseudomonas aeruginosa; assay: Antimicrobial activity against Pseudomonas aeruginosa
[5] = tested on: Escherichia coli; assay: Antimicrobial activity against Escherichia coli
[6] = tested on: Staphylococcus aureus; assay: Antimicrobial activity against Staphylococcus aureus
[7] = tested on: Escherichia coli; assay: Antimicrobial activity against Escherichia coli assessed as reduction of microbial growth incubated for 18 to 24 hrs by microdilution method; settings: time 18-24 hrs
[8] = tested on: Pseudomonas aeruginosa; assay: Antimicrobial activity against Pseudomonas aeruginosa assessed as reduction of microbial growth incubated for 18 to 24 hrs by microdilution method; settings: time 18-24 hrs
[9] = tested on: Staphylococcus aureus; assay: Antimicrobial activity against Staphylococcus aureus assessed as reduction of microbial growth incubated for 18 to 24 hrs by microdilution method; settings: time 18-24 hrs
[10] = tested on: Escherichia coli; assay: Antimicrobial activity against Escherichia coli assessed as reduction of microbial growth incubated for 24 hrs
[11] = tested on: Staphylococcus aureus; assay: Antimicrobial activity against Staphylococcus aureus assessed as reduction of microbial growth incubated for 24 hrs
[12] = tested on: Pseudomonas aeruginosa; assay: Antimicrobial activity against Pseudomonas aeruginosa assessed as reduction of microbial growth incubated for 24 hrs
[13] = tested on: Staphylococcus aureus; assay: Antimicrobial activity against Staphylococcus aureus assessed as reduction of microbial growth
[14] = tested on: Pseudomonas aeruginosa; assay: Antimicrobial activity against Pseudomonas aeruginosa assessed as reduction of microbial growth
[15] = tested on: Escherichia coli; assay: Antimicrobial activity against Escherichia coli assessed as reduction of microbial growth
[16] = tested on: Staphylococcus aureus; assay: Antimicrobial activity against Staphylococcus aureus Cowan 1 assessed as reduction of microbial
[17] = tested on: Escherichia coli; assay: Antimicrobial activity against Escherichia coli D21 assessed as reduction of microbial growth; settings: time 24 hrs
[18] = tested on: Pseudomonas aeruginosa; assay: Antimicrobial activity against Pseudomonas aeruginosa OT97 assessed as reduction of microbial
[19] = tested on: Staphylococcus aureus; assay: Antimicrobial activity against Staphylococcus aureus assessed as reduction of microbial growth incubated overnight
[20] = tested on: Pseudomonas aeruginosa; assay: Antimicrobial activity against Pseudomonas aeruginosa assessed as reduction of microbial growth incubated overnight
[21] = tested on: Escherichia coli; assay: Antimicrobial activity against Escherichia coli assessed as reduction of microbial growth incubated overnight

MIC [1]: > 100 µg/mL
MIC [2]: > 100 µg/mL
MIC [3]: > 100 µg/mL
Compound: CC[C@H](C)[C@H](NC(=O)CN)C(=O)NCC(=O)N[C@@H](CCCCN)C(=O)N[C@@H](Cc1ccccc1)C(=O)N[C@@H](CC(C)C)C(=O)N[C@@H](Cc1c[nH]cn1)C(=O)N[C@@H](CO)C(=O)N[C@H](C)C(=O)N[C@@H](CCCCN)C(=O)N[C@@H](CCCCN)C(=O)N[C@@H](Cc1ccccc1)C(=O)N[C@H](C)C(=O)N[C@@H](CCCCN)C(=O)N[C@@H](C)C(=O)N[C@@H](Cc1ccccc1)C(=O)N[C@H](C(=O)N[C@H](C)C(=O)N[C@@H](CCC(=O)O)C(=O)N[C@H](C(=O)N[C@@H](CCSC)C(=O)N[C@@H](CC(N)=O)C(=O)N[C@@H](CO)C(N)=O)[C@@H](C)CC)C(C)C (H-GIGKFLHS[dA]KKF[dA]KAFV[dA]EIMNS-NH2)

MIC [7]: 3.12 µg/mL
MIC [8]: 6.25 µg/mL
MIC [9]: 25 µg/mL
Compound: H-RRRRRRRRRRGIGKFLHSAKKFGKAFVGEIMNS-OH

MIC [13]: inactive
MIC [14]: inactive
MIC [15]: 20 µg/mL
Compound: H-KFLHSAKKFGKAFVGEIMNS-OH

MIC [13]: > 256 µg/mL
MIC [14]: 256 µg/mL
MIC [15]: 128 µg/mL
Compound: H-GIGKFLHSAKKFGKAFVGEIMNS-NH2

MIC [1]: > 100 µg/mL
MIC [2]: 25 µg/mL
MIC [3]: 25 µg/mL
Compound: Ac-GIGKFLHAAKKFAKAFVAEIMNS-NH2

Second part, the compound before the results:

Compound: H-KWKLFKKGIGAVLKV-OH
LD [4]: 15 µM
LD [5]: 4 µM
LD [6]: 29 µM

Compound: CC[C@H](C)[C@H](NC(=O)CN)C(=O)NCC(=O)N[C@@H](C)C(=O)N[C@H](C(=O)N[C@@H](CC(C)C)C(=O)N[C@@H](CCCCN)C(=O)N[C@H](C(=O)N[C@@H](CC(C)C)C(=O)N[C@H](C(=O)N[C@H](C(=O)NCC(=O)N[C@@H](CC(C)C)C(=O)N[C@@H](CCCCN)C(=O)N[C@@H](Cc1c[nH]c2ccccc12)C(=O)N[C@@H](CCCCN)C(=O)N[C@@H](CC(C)C)C(=O)N[C@@H](Cc1ccccc1)C(=O)N[C@@H](CCCCN)C(=O)N[C@@H](CCCCN)C(=O)N[C@H](C(=O)N[C@@H](CCC(=O)O)C(=O)N[C@@H](CCCCN)C(=O)N[C@H](C(=O)NCC(=O)N[C@@H](CCC(N)=O)C(=O)N[C@@H](CC(N)=O)C(=O)N[C@H](C(=O)N[C@@H](CCCNC(=N)N)C(=O)N[C@@H](CC(=O)O)C(=O)NCC(=O)N[C@H](C(=O)N[C@H](C(=O)N[C@@H](CCCCN)C(=O)N[C@@H](C)C(=O)O)[C@@H](C)CC)[C@@H](C)CC)[C@@H](C)CC)C(C)C)[C@@H](C)CC)[C@@H](C)O)[C@@H](C)O)C(C)C)C(C)C
LD [10]: 0.7 µM
LD [11]: 5 µM
LD [12]: 8 µM

Compound: CC[C@H](C)[C@H](NC(=O)CNC(=O)CCN)C(=O)NCC(=O)N[C@@H](CCCCN)C(=O)N[C@@H](Cc1ccccc1)C(=O)N[C@@H](CC(C)C)C(=O)N[C@@H](Cc1c[nH]cn1)C(=O)N[C@@H](C)C(=O)N[C@@H](C)C(=O)N[C@@H](CCCCN)C(=O)N[C@@H](CCCCN)C(=O)N[C@@H](Cc1ccccc1)C(=O)N[C@@H](C)C(=O)N[C@@H](CCCCN)C(=O)N[C@@H](C)C(=O)N[C@@H](Cc1ccccc1)C(=O)N[C@H](C(=O)N[C@@H](C)C(=O)N[C@@H](CCC(=O)O)C(=O)N[C@H](C(=O)N[C@@H](CCSC)C(=O)N[C@@H](CC(N)=O)C(=O)N[C@@H](CO)C(N)=O)[C@@H](C)CC)C(C)C (H-[βAla]GIGKFLHAAKKFAKAFVAEIMNS-NH2)
MIC [1]: 50 µg/mL
MIC [2]: 5 µg/mL
MIC [3]: 5 µg/mL

Compound: H-KWKLFKKIGIGAVLKVLKTTGLPALI-OH
LD [16]: 1 µM
LD [17]: 0.3 µM
LD [18]: 0.7 µM

Compound: H-KWKLFKKVLKVLTTG-OH
LD [4]: 2 µM
LD [5]: 0.5 µM
LD [6]: 8 µM

Compound: CC[C@H](C)[C@H](NC(=O)CNC(=O)[C@@H]1CCCN1C(=O)CNC(=O)[C@H](C)NC(=O)[C@H](CCCCN)NC(=O)[C@@H](NC(=O)[C@@H](NC(=O)CNC(=O)[C@H](CC(=O)O)NC(=O)[C@H](CCCNC(=N)N)NC(=O)[C@@H](NC(=O)[C@H](CC(N)=O)NC(=O)[C@H](CCC(N)=O)NC(=O)CNC(=O)[C@@H](NC(=O)[C@H](CCCCN)NC(=O)[C@H](CCC(=O)O)NC(=O)[C@@H](NC(=O)[C@H](CCCCN)NC(=O)[C@H](CCCCN)NC(=O)[C@H](Cc1ccccc1)NC(=O)[C@H](CC(C)C)NC(=O)[C@H](CCCCN)NC(=O)[C@H](Cc1c[nH]c2ccccc12)NC(=O)[C@@H](N)CCCCN)[C@@H](C)CC)C(C)C)[C@@H](C)CC)[C@@H](C)CC)[C@@H](C)CC)C(=O)NCC(=O)N[C@@H](C)C(=O)N[C@H](C(=O)N[C@@H](CC(C)C)C(=O)N[C@@H](CCCCN)C(=O)N[C@H](C(=O)N[C@@H](CC(C)C)C(=O)N[C@H](C(=O)N[C@H](C(=O)NCC(=O)N[C@@H](CC(C)C)C(=O)O)[C@@H](C)O)[C@@H](C)O)C(C)C)C(C)C
LD [19]: 6 µM
LD [20]: 1 µM
LD [21]: 0.3 µM
